pIC50: −log10 of the molar value. Active and inactive are the calls of the source. The rule behind the calls is not given here.
Key:
[1] = target: T1, Stimulator of interferon genes protein (Mus musculus) (UniProt Q3TBT3); test: Inhibition of STING downstream signalling in mouse BMDM cells assessed as inhibition of MSA-2 induced Isg56 mRNA level pre-treated for 1 hr followed by stimulated with MSA-2 measured after 4 hrs by real-time PCR analysis; assay type: cell-based; details: dose 0.3-3 µM, time 5.0 hrs
T1 sequence (whole entry): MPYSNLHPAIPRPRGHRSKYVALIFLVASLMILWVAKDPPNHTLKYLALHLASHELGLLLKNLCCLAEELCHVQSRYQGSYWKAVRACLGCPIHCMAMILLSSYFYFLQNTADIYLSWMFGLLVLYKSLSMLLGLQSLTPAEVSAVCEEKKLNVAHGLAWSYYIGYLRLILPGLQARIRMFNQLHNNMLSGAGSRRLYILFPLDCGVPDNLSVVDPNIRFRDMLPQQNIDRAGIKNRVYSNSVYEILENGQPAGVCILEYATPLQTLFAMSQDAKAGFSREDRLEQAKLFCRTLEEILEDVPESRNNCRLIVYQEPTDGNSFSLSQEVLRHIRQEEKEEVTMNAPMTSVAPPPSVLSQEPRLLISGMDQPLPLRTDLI

[2] = Metabolic stability in rat liver microsomes assessed as microsomal intrinsic clearance; assay type: ADME, Microsome; details: read-out: CLH
Mus musculus [3] = test: Prevention of body weight loss in Cisplatin induced C57BL/6 mouse kidney inflammation model at 5 mg/kg, ip treated for 3 days; assay type: functional, organism-based; details: time 3.0 day
[4] = target: Stimulator of interferon genes protein (Homo sapiens) (UniProt Q86WV6); test: Inhibition of human wild type STING (R232) expressed in human THP-1 Dual cells assessed as reduction in cGAMP-induced IL-6 expression; assay type: cell-based; details: 293-Dual hSTING-R232
HEK293 = test: Protection of Cisplatin induced apoptosis in human HEK293 cells assessed as apoptotic cells at 10 uM measured after 72 hrs by flow cytometry; assay type: functional, cell-based
[5] = target: Stimulator of interferon genes protein (Homo sapiens) (UniProt Q86WV6); test: Inhibition of human wild type STING (R232) expressed in human 293-Dual hSTING-R232 cells assessed as inhibition of secreted luciferase reporter of interferon stimulated gene (ISG) measured after 24 hrs incubation; assay type: cell-based
[6] = target: T1, Stimulator of interferon genes protein (Mus musculus); test: Inhibition of STING downstream signalling in mouse BMDM cells assessed as inhibition of MSA-2 induced Ccl5 mRNA level pre-treated for 1 hr followed by stimulated with MSA-2 measured after 4 hrs by real-time PCR analysis; assay type: cell-based; details: dose 0.3-3 µM, time 5.0 hrs
Mus musculus [7] = test: Anti-inflammatory activity against Cisplatin induced C57BL/6 mouse kidney inflammation model assessed as suppression of Cisplatin induced Isg15 mRNA level in kidney at 5 mg/kg, ip treated for 3 days by real-time PCR analysis; assay type: functional, organism-based; details: time 3.0 day
[8] = target: T2, Stimulator of interferon genes protein (Mus musculus, UniProt Q3TBT3); test: Inhibition of mouse STING in mouse RAW cells assessed as secreted luciferase reporter of interferon stimulated gene (ISG) measured after 24 hrs incubation by QUANTI-Luc detection assay; assay type: cell-based
T2 sequence (Q3TBT3 whole entry): T1 sequence (whole entry)

Mus musculus [9] = test: Anti-inflammatory activity in TREX1 D18N mouse model assessed as reduction in Cxcl10 mRNA expression in kidney at 10 mg/kg, ip measured after 2 weeks; assay type: functional, organism-based
Mus musculus [10] = test: Effect on Isg56 expression in Cisplatin induced C57BL/6 STING-KO mouse kidney inflammation model at 5 mg/kg, ip treated for 3 days by real-time PCR analysis; assay type: functional, organism-based; details: time 3.0 day
[11] = Metabolic stability in mouse liver microsomes assessed as microsomal intrinsic clearance; assay type: ADME, Microsome; details: read-out: CLH
[12] = target: T1, Stimulator of interferon genes protein (Mus musculus); test: Inhibition of STING downstream signalling in mouse BMDM cells assessed as inhibition of MSA-2 induced Isg15 mRNA level pre-treated for 1 hr followed by stimulated with MSA-2 measured after 4 hrs by real-time PCR analysis; assay type: cell-based; details: dose 0.3-3 µM, time 5.0 hrs
Mus musculus [13] = test: Anti-inflammatory activity in TREX1 D18N mouse model assessed as reduction in IL6 mRNA expression in kidney at 10 mg/kg, ip measured after 2 weeks; assay type: functional, organism-based
[14] = target: Stimulator of interferon genes protein (Homo sapiens) (UniProt Q86WV6); test: Binding affinity to Flag-tagged human STING expressed in HEK293T cells assessed as labelling at 0.5 to 4 uM pretreated for 15 mins measured after 1 hr in presence of 1 uM 1-(2,2-difluorobenzo[d][1,3]dioxol-5-yl)-3-(5-ethynyl-1H-indol-3-yl)urea by TAMRA-N3 fluorescent assay; assay type: cell-based; details: dose 0.5-4 µM, time 75.0 min
Mus musculus [15] = test: Anti-inflammatory activity against Cisplatin induced C57BL/6 mouse kidney inflammation model assessed as suppression of Cisplatin induced Ifn-beta mRNA level in kidney at 5 mg/kg, ip treated for 3 days by real-time PCR analysis; assay type: functional, organism-based; details: time 3.0 day
Mus musculus [16] = test: Anti-inflammatory activity in TREX1 D18N mouse model assessed as reduction in Isg15 mRNA expression in kidney at 10 mg/kg, ip measured after 2 weeks; assay type: functional, organism-based
[17] = Cytotoxicity against mouse RAW-Lucia ISG cells assessed as cell viability measured after 24 hrs by CCK8 assay; assay type: toxicity, cell-based
Mus musculus [18] = test: Anti-inflammatory activity against Cisplatin induced C57BL/6 mouse kidney inflammation model assessed as suppression of Cisplatin induced Isg56 mRNA level in kidney at 5 mg/kg, ip treated for 3 days by real-time PCR analysis; assay type: functional, organism-based; details: time 3.0 day
[19] = tested on: Stimulator of interferon genes protein (Homo sapiens), Q86WV6 [UNDEFINED MUTATION]; test: Inhibition of human STING expressed in 293T-Dual-hSTING-293Q cells assessed as reduction in cGAMP-induced secreted luciferase reporter of interferon stimulated gene (ISG) measured after 24 hrs incubation; assay type: cell-based
[20] = target: Stimulator of interferon genes protein (Homo sapiens) (UniProt Q86WV6); test: Inhibition of STING in human THP1-Dual cells assessed as inhibition of HT-DNA induced cGAS activation measured after 1 hr incubation followed by stimulated with HT-DNA by Western blotting analysis; assay type: cell-based
Mus musculus [21] = test: Anti-inflammatory activity against MSA-2 induced C57BL/6 mouse inflammation model assessed as inhibition of MSA-2 induced IL-6 mRNA expression in kidney at 10 mg/kg, ip pre-treated for 1 hr followed by stimulated with MSA-2 for 4 hrs by real-time PCR analysis; assay type: functional, organism-based; details: time 5.0 hrs
[22] = AUC (0 to infinity) in Sprague-Dawley rat at 3 mg/kg, po; assay type: ADME, organism-based; details: in vivo
[23] = Metabolic stability in rat liver microsomes assessed as half life; assay type: ADME, Microsome
Mus musculus [24] = test: Anti-inflammatory activity in TREX1 D18N mouse model assessed as reduction in Cxcl10 mRNA expression in heart at 10 mg/kg, ip measured after 2 weeks; assay type: functional, organism-based
[25] = target: T1, Stimulator of interferon genes protein (Mus musculus); test: Inhibition of STING downstream signalling in mouse RAW264.7 cells assessed as inhibition of DMAAA induced Isg15 mRNA level pre-treated for 1 hr followed by stimulated with DMAAA measured after 4 hrs by real-time PCR analysis; assay type: cell-based; details: dose 0.3-3 µM, time 5.0 hrs
[26] = MRT (0 to infinity) in Sprague-Dawley rat at 3 mg/kg, po; assay type: ADME, organism-based; details: in vivo
[27] = Metabolic stability in mouse liver microsomes assessed as half life; assay type: ADME, Microsome
[28] = target: Stimulator of interferon genes protein (Homo sapiens) (UniProt Q86WV6); test: Inhibition of STING in human THP1-Dual cells assessed as inhibition of MSA-2 induced ISG signalling measured after 1 hr incubation followed by stimulated with MSA-2 by Western blotting analysis; assay type: cell-based

Chain of Stimulator of interferon genes protein (Homo sapiens) (Q86WV6 whole entry): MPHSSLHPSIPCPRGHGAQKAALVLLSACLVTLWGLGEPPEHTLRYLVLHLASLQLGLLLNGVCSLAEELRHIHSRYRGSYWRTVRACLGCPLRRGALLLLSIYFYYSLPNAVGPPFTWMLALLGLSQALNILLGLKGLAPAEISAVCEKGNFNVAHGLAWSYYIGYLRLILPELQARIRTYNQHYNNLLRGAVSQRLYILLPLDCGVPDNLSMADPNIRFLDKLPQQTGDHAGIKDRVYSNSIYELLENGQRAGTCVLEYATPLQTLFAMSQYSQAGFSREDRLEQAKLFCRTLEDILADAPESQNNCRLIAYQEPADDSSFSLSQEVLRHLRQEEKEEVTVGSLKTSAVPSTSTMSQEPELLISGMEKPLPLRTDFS
Chain of Stimulator of interferon genes protein (Homo sapiens), Q86WV6 [UNDEFINED MUTATION] (Q86WV6 whole entry, looked up, change not shown): as the sequence (Q86WV6 whole entry) above

N#CC/C=C/c1ccc2[nH]cc(NC(=O)Nc3ccc4c(c3)OC(F)(F)O4)c2c1
inhibition [1]: Dose-dependent-effect
microsomal CLint [2]: 36 µL/min/mg
Activity (Mus musculus [3]): inactive
inhibition [4]: Active
Activity (HEK293): Active
inhibition [5]: Active
inhibition [6]: Dose-dependent-effect
inhibition (Mus musculus [7]): Active
pIC50 [8]: 7.02
Activity (Mus musculus [9]): Active
Activity (Mus musculus [10]): inactive
microsomal CLint [11]: 52 µL/min/mg
inhibition [12]: Dose-dependent-effect
Activity (Mus musculus [13]): Active
Activity [14]: inactive
inhibition (Mus musculus [15]): Active
Activity (Mus musculus [16]): Active
Activity [17]: Non-toxic
inhibition (Mus musculus [18]): Active
inhibition [19]: Active
inhibition [20]: Dose-dependent-effect
inhibition (Mus musculus [21]): Active
AUC(0-inf) [22]: 74.8 ng·h/mL
half-life [23]: 38.5 min
Activity (Mus musculus [24]): Active
inhibition [25]: Dose-dependent-effect
MRT [26]: 460 min
half-life [27]: 26.7 min
inhibition [28]: Dose-dependent-effect

From ChEMBL document CHEMBL6109147, “Discovery of Potent STING Inhibitors Bearing a Difluorobenzodioxol Structural Motif as Potent Anti-Inflammatory Agents” (J Med Chem, 2025)
